Source: patent publication US4304778A, “4-Aminoquinazoline derivatives having fungicidal, anti-insect and acaricidal properties” (Sankyo Company Limited, priority 1978, dated 1981)

Experiments:
guppies = test: Toxicity to guppies; type: in vivo; conditions: LC50 after 48 hours classified
Procedure: In this example the toxicity of the compounds of the invention towards guppies was estimated and is compared with that of corresponding compounds as disclosed and claimed in our co-pending U.S. Application No. 910,117 filed May 30, 1978. The LC50 was determined after 48 hours and the toxicity to guppies was classified into the rankings (i), (ii) and (iii) according to the following classification scheme: […]

cockroach larvae = conditions: 24 hours; 25° C.
Sphaerotheca fuliginea = test: Effect on powdery mildew in cucumbers; type: in vivo; conditions: cucumber powdery mildew; 500 ppm; 10 days
Procedure: (§1) In the following Examples, wettable powders prepared according to the procedures of Example 4 were used, each powder containing 50% by weight of the active compound of this invention.
Cucumber seedlings (variety Sagamihanshiro), planted two per 12 cm diameter pot, were used as host plants at the stage when the first leaf was fully grown and open. Each test group of three pots was treated with one of the active compounds shown in Table 5 by spraying an aqueous suspension containing 500 ppm of the active compound onto the plants at the rate of 20 ml per 3 pots. After air-drying the plants, the host plants were inoculated with the microorganism Sphaerotheca fuliginea by brushing already infected cucumber leaves with a small brush and letting the microorganism fall onto the host plants. The inoculated plants were kept in a greenhouse at 24°-26° C. for 10 days. At the end of this time, the percentage diseased area was measured.

Phytophthora infestans = type: in vivo; conditions: tomato late blight; 500 ppm; after 5 days; average per leaf
[1] = system: third instar larvae of the tobacco cutworm; test: Repellent action against the third instar larvae of the tobacco cutworm; type: in vivo; set-up: key: -: no ingestion; ±: very little ingestion; +: some ingestion; ++: considerable ingestion; conditions: cabbage leaves dipped in 500 ppm, 72 hours
Source text: as §1
Cabbage leaves were dipped for 30 seconds in an aqueous suspension containing 500 ppm of one of the active compounds shown in Table 6. After air-drying, each leaf was placed into a plastic receptacle having a diameter of 8 cm and the third instar larvae (10 per receptacle) of the tobacco cutworm were released onto the leaves. After 72 hours, the extent of ingestion of the leaves was measured, using two receptacles for each test compound. The results are shown in Table 6, using the following notation (which is also employed, with the same meaning, in following Table 9): […]

[2] = system: final instar larvae of the diamondback moth (Plutella xylostella); test: Repellent and emergence-inhibition effect on the final instar larvae of diamondback moths; type: in vivo; set-up: key to Extent of ingestion: -: no ingestion; ±: very little ingestion; +: some ingestion; ++: considerable ingestion; conditions: 72 hours; for pest or weed control at 500 ppm: Plutella xylostella, read-out: Emergence-inhibition rate (%); for Extent of ingestion: radish leaves dipped in 500 ppm
Source text: as §1
Leaves of the Japanese radish (Raphanus sativus) were dipped for 30 seconds into a liquid containing 500 ppm of one of the compounds shown in Table 9. After air-drying the leaves, each leaf was placed into a plastic icecream cup (diameter 8 cm) and 15 final instar larvae of the diamondback moth (Plutella xylostella) were placed into each cup. Each test was conducted in duplicate and the results were averaged.

| Compound | Toxicity ranking (guppies) | Diseased area (%) (Sphaerotheca fuliginea) | Diseased area (%) (Phytophthora infestans) | also measured |
| --- | --- | --- | --- | --- |
| Cc1ccccc1OCCNc1ncnc2ccccc12 [Compound A, 4-{N-[2-(2-methylphenoxy)ethyl]amino}quinazoline, reference compound] | iii (all fish dead at 0.5 ppm) | – | – | – |
| CC(C)c1ccccc1OCCNc1ncnc2ccccc12 [Compound B, 4-{N-[2-(2-isopropylphenoxy)ethyl]amino}quinazoline, reference compound] | iii (all fish dead at 0.5 ppm) | – | – | – |
| Cc1ccc(OCCNc2ncnc3ccccc23)c(C)c1 [Compound C, 4-{N-[2-(2,4-dimethylphenoxy)ethyl]amino}quinazoline, reference compound] | iii (all fish dead at 0.5 ppm) | – | – | – |
| Cc1cc(Cl)ccc1OCCNc1ncnc2ccccc12 [Compound D, 4-{N-[2-(4-chloro-2-methylphenoxy)ethyl]amino}quinazoline, reference compound] | iii (all fish dead at 0.5 ppm) | – | – | – |
| CN(CCOc1ccccc1)c1ncnc2ccccc12 [Compound No. 4, 4-[N-methyl-N-(2-phenoxyethyl)amino]quinazoline] | – | – | – | Mortality rate (%), 0.5mg test cpd/10 cockroaches/bottle (cockroach larvae): 85%; Mortality rate (%), 1mg test cpd/10 cockroaches/bottle (cockroach larvae): 100% |
| C=CCN(CCOc1ccccc1C)c1ncnc2ccccc12 [Compound No. 8, 4-{N-allyl-N-[2-(2-methylphenoxy)ethyl]amino}quinazoline] | ii (all fish dead at 10 ppm but alive at 0.5 ppm) | 0 | 5 | – |
| Cc1ccccc1OCCN(Cc1ccccc1)c1ncnc2ccccc12 [compound 3, 4-{N-benzyl-N-[2-(2-methylphenoxy)ethyl]amino}quinazoline] | i (all fish alive at 10 ppm) | 0 | 11 | – |
| CCN(CCOc1ccccc1)c1ncnc2ccccc12 [compound 5, 4-[N-ethyl-N-(2-phenoxyethyl)amino]quinazoline] | – | 6 | – | – |
| CCCN(CCOc1ccccc1C)c1ncnc2ccccc12 [compound 6, 4-{N-[2-(2-methylphenoxy)ethyl]-N-propylamino}quinazoline] | – | 0 | 0 | – |
| Cc1ccccc1OCCN(c1ncnc2ccccc12)C(C)C [compound 7, 4-{N-isopropyl-N-[2-(2-methylphenoxy)ethyl]amino}quinazoline] | ii (all fish dead at 10 ppm but alive at 0.5 ppm) | 0 | – | – |
| CN(CCOc1ccccc1Cl)c1ncnc2ccccc12 [compound 11, 4-{N-[2-(2-chlorophenoxy)ethyl]-N-methylamino}quinazolone] | – | – | 3 | – |
| CCC(C)c1ccccc1OCCN(C)c1ncnc2ccccc12 (centres unmarked) [compound 12, 4-{N-methyl-N-[2-(2-sec-butylphenoxy)ethyl]amino}quinazoline] | – | – | 15 | Mortality rate (%), 0.5mg test cpd/10 cockroaches/bottle (cockroach larvae): 90%; Mortality rate (%), 1mg test cpd/10 cockroaches/bottle (cockroach larvae): 100% |
| COc1ccccc1OCCN(C)c1ncnc2ccccc12 [compound 16, 4-{N-[2-(2-methoxyphenoxy)ethyl]-N-methylamino}quinazoline] | – | – | 13 | – |
| CN(CCOc1ccc(Cl)cc1)c1ncnc2ccccc12 [compound 19, 4-{N-[2-(4-chlorophenoxy)ethyl]-N-methylamino}quinazoline] | – | – | – | Mortality rate (%), 0.5mg test cpd/10 cockroaches/bottle (cockroach larvae): 85%; Mortality rate (%), 1mg test cpd/10 cockroaches/bottle (cockroach larvae): 100%; Extent of ingestion [1]: +; pest or weed control at 500 ppm [2]: 80%; Extent of ingestion [2]: ± |
| Cc1cccc(OCCN(C)c2ncnc3ccccc23)c1 [compound 20, 4-{N-methyl-N-[2-(3-methylphenoxy)ethyl]amino}quinazoline] | – | – | – | Mortality rate (%), 0.5mg test cpd/10 cockroaches/bottle (cockroach larvae): 90%; Mortality rate (%), 1mg test cpd/10 cockroaches/bottle (cockroach larvae): 100% |
| CN(CCOc1cccc(Cl)c1)c1ncnc2ccccc12 [compound 23, 4-{N-[2-(3-chlorophenoxy)ethyl]-N-methylamino}quinazoline] | – | – | – | Mortality rate (%), 0.5mg test cpd/10 cockroaches/bottle (cockroach larvae): 85%; Mortality rate (%), 1mg test cpd/10 cockroaches/bottle (cockroach larvae): 100% |
| CCCN(CCOc1ccccc1C(C)C)c1ncnc2ccccc12 [compound 24, 4-{N-[2-(2-isopropylphenoxy)ethyl]-N-propylamino}quinazoline] | – | 0 | – | – |

| Compound | Toxicity ranking (guppies) | Diseased area (%) (Sphaerotheca fuliginea) | Diseased area (%) (Phytophthora infestans) | also measured |
| --- | --- | --- | --- | --- |
| CCN(CCOc1ccccc1C(C)C)c1ncnc2ccccc12 [compound 27, 4-{N-ethyl-N-[2-(2-isopropylphenoxy)ethyl]amino}quinazoline] | – | 0 | – | – |
| CCCCN(CCOc1ccccc1C(C)C)c1ncnc2ccccc12 [compound 28, 4{N-butyl-N-[2-(2-isopropylphenoxy)ethyl]amino}quinazoline] | – | 0 | – | – |
| CC(C)c1ccccc1OCCN(c1ncnc2ccccc12)C(C)C [compound 29, 4-{N-isopropyl-N-[2-(2-isopropylphenoxy)ethyl]amino}quinazoline] | – | – | – | pest or weed control at 500 ppm [2]: 60%; Extent of ingestion [2]: ± to + |
| CCCN(CCOc1ccc(C)cc1C)c1ncnc2ccccc12 [compound 33, 4-{N-[2-(2,4-dimethylphenoxy)ethyl]-N-propylamino}quinazoline] | – | 0 | – | Mortality rate (%), 0.5mg test cpd/10 cockroaches/bottle (cockroach larvae): 90%; Mortality rate (%), 1mg test cpd/10 cockroaches/bottle (cockroach larvae): 100% |
| CCCCN(CCOc1ccc(C)cc1C)c1ncnc2ccccc12 [compound 35, 4-{N-butyl-N-[2-(2,4-dimethylphenoxy)ethyl]amino}quinazoline] | ii (all fish dead at 10 ppm but alive at 0.5 ppm) | 0 | – | – |
| Cc1ccc(OCCN(Cc2ccccc2)c2ncnc3ccccc23)c(C)c1 [compound 36, 4-{N-benzyl-N-[2-(2,4-dimethylphenoxy)ethyl]amino}quinazoline] | ii (all fish dead at 10 ppm but alive at 0.5 ppm) | 0 | – | – |
| Cc1ccc(OCCN(c2ncnc3ccccc23)C2CCCCC2)c(C)c1 [compound 37, 4-{N-cyclohexyl-N-[2-(2,4-dimethylphenoxy)ethyl]amino}quinazoline] | – | – | – | pest or weed control at 500 ppm [2]: 60%; Extent of ingestion [2]: ± to + |
| CCCN(CCOc1ccc(Cl)cc1C)c1ncnc2ccccc12 [compound 39, 4-{N-[2-(4-chloro-2-methylphenoxy)ethyl]-N-propylamino}quinazoline] | ii (all fish dead at 10 ppm but alive at 0.5 ppm) | 0 | 9 | Mortality rate (%), 0.5mg test cpd/10 cockroaches/bottle (cockroach larvae): 85%; Mortality rate (%), 1mg test cpd/10 cockroaches/bottle (cockroach larvae): 100% |
| Cc1cc(Cl)ccc1OCCN(c1ncnc2ccccc12)C(C)C [compound 40, 4-{N-[2-(4-chloro-2-methylphenoxy)ethyl]-N-isopropylamino}quinazoline] | i (all fish alive at 10 ppm) | 0 | – | – |
| CCCCN(CCOc1ccc(Cl)cc1C)c1ncnc2ccccc12 [compound 41, 4-{N-butyl-N-[2-(4-chloro-2-methylphenoxy)ethyl]amino}quinazoline] | – | – | – | Mortality rate (%), 0.5mg test cpd/10 cockroaches/bottle (cockroach larvae): 85%; Mortality rate (%), 1mg test cpd/10 cockroaches/bottle (cockroach larvae): 100%; Extent of ingestion [1]: ± to +; pest or weed control at 500 ppm [2]: 90%; Extent of ingestion [2]: ± |
| Cc1cc(Cl)ccc1OCCN(Cc1ccccc1)c1ncnc2ccccc12 [compound 42, 4-{N-benzyl-N-[2-(4-chloro-2-methylphenoxy)ethyl]amino}quinazoline] | – | – | – | pest or weed control at 500 ppm [2]: 60%; Extent of ingestion [2]: ± to + |
| CC(C)c1ccccc1OCCN(c1ncnc2ccccc12)C1CCCCC1 [compound 46, 4-{N-cyclohexyl-N-[2-(2-isopropylphenoxy)ethyl]amino}quinazoline] | – | – | 0 | – |
| CCCN(CCOc1cc(C(C)C)ccc1C)c1ncnc2ccccc12 [compound 48, 4-{N-[2-(5-isopropyl-2-methylphenoxy)ethyl]-N-propylamino}quinazoline] | – | 0 | – | – |
| CCCCN(CCOc1cc(C(C)C)ccc1C)c1ncnc2ccccc12 [compound 49, 4-{N-butyl-N-[2-(5-isopropyl-2-methylphenoxy)ethyl]amino}quinazoline] | – | 0 | – | – |
| CC(C)=CCN(CCOc1ccccc1C(C)C)c1ncnc2ccccc12 [compound 53, 4-{N-[2-(2-isopropylphenoxy)ethyl]-N-(3-methyl-2-butenyl)amino}quinazoline] | ii (all fish dead at 10 ppm but alive at 0.5 ppm) | – | 0 | – |
| CC(C)c1ccccc1OCCN(C)c1ncnc2ccccc12.O=C(O)C(=O)O [compound 54, 4-{N-[2-(2-isopropylphenoxy)ethyl]-N-methylamino}quinazoline oxalate] | – | – | 0 | – |
